PMC10999543, “Identification of kinase modulators as host-directed therapeutics against intracellular methicillin-resistant Staphylococcus aureus” (Frontiers in Cellular and Infection Microbiology, 2024)
Read-outs that look alike come from different tables or passages of the source.

Columns and labels:
intracellular MRSA = type: cell-based, Staphylococcus aureus; conditions: for %GFP+ rep 1 / z-scoreMRSA+ rep 1: replicate 1; for %GFP+ rep 2 / z-scoreMRSA+ rep 2: replicate 2; for %GFP+ rep 3 / z-scoreMRSA+ rep 3: replicate 3; for z-scoreMRSA+ mean: mean of 3 replicates; for %GFP+ rep 1: test concentration or dose not given here; for %GFP+ rep 2: test concentration or dose not given here; for %GFP+ rep 3: test concentration or dose not given here; for effect: test concentration or dose not given here; for z-scoreMRSA+ mean: test concentration or dose not given here; for z-scoreMRSA+ rep 1: test concentration or dose not given here; for z-scoreMRSA+ rep 2: test concentration or dose not given here; for z-scoreMRSA+ rep 3: test concentration or dose not given here
Procedure, shortened: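 Values are z-scores: GFP-positive HeLa percentage and event count per well against plate statistics, minus the mean DMSO z-score. Wells deviating two-fold from controls were left out of plate means. Infection was at a mean MOI of 6.8, with an overnight compound exposure.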

HeLa cells = experiment: Compound screen by flow cytometry: HeLa cell count as surrogate readout of cell viability (z-scoreHeLa); type: cell-based, human; note: test concentration or dose not given here
Procedure, shortened: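 The viability surrogate was the count of fixed HeLa cells by flow cytometry, converted to z-scores against DMSO controls with values deviating two-fold excluded. Before counting, cells had been infected with MRSA for 1 h and cleared of extracellular bacteria with gentamicin. They were then exposed overnight to kinase inhibitors in triplicate.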

[1] = PKIS compound screen raw data, MRSA-infected HeLa cells
[2] = PKIS compound screen, MRSA-infected HeLa cells
[3] = PKIS compound screen, Yes/No call
[4] = PKIS compound screen, Yes/No call (effect without cell death)
[5] = PKIS compound screen, Yes/No call on z-scoreMRSA+
[6] = PKIS compounds raw data, MRSA-infected HeLa cells
[7] = PKIS compound screen raw data, HeLa cell count, replicate 1
[8] = PKIS compound screen raw data, HeLa cell count, replicate 2
[9] = PKIS compound screen raw data, HeLa cell count, replicate 3
[10] = PKIS compound screen, mean of 3 replicates
[11] = PKIS compound screen, replicate 1
[12] = PKIS compound screen, replicate 2
[13] = PKIS compound screen, replicate 3
[14] = PKIS compounds raw data, replicate 1, HeLa cell count
[15] = PKIS compounds raw data, replicate 2, HeLa cell count
[16] = PKIS compounds raw data, replicate 3, HeLa cell count
[17] = Yes/No: effect without cell death
[18] = compound screen, MRSA-infected HeLa cells
[19] = compound screen, HeLa cell count, mean of 3 replicates
[20] = compound screen, HeLa cell count, replicate 1
[21] = compound screen, HeLa cell count, replicate 2
[22] = compound screen, HeLa cell count, replicate 3

Compound: O=C(Nc1n[nH]c2nc(-c3ccccc3)c(Br)cc12)C1CC1 [SB-708998]
- %GFP+ rep 1 (intracellular MRSA; [1]): 14.4%
- %GFP+ rep 2 (intracellular MRSA; [1]): 13.9%
- %GFP+ rep 3 (intracellular MRSA; [1]): 15.7%
- z-scoreMRSA+ mean (intracellular MRSA; [2]): -1.40
- z-scoreMRSA+ rep 1 (intracellular MRSA; [2]): -1.17
- z-scoreMRSA+ rep 2 (intracellular MRSA; [2]): -1.50
- z-scoreMRSA+ rep 3 (intracellular MRSA; [2]): -1.51
- effect (intracellular MRSA; [3]): No
- hit (intracellular MRSA; [4]): No
- effect (intracellular MRSA; [5]): No
- z-scoreMRSA+ mean (intracellular MRSA; PKIS compound screen): 0.31
- z-scoreMRSA+ rep 1 (intracellular MRSA; PKIS compound screen): 0.75
- z-scoreMRSA+ rep 2 (intracellular MRSA; PKIS compound screen): -0.18
- z-scoreMRSA+ rep 3 (intracellular MRSA; PKIS compound screen): 0.38
- %GFP+ rep 1 (intracellular MRSA; [6]): 30.9%
- %GFP+ rep 2 (intracellular MRSA; [6]): 25.1%
- %GFP+ rep 3 (intracellular MRSA; [6]): 29.3%
- cell count rep 1 (HeLa cells; [7]): 29154
- cell count rep 2 (HeLa cells; [8]): 28936
- cell count rep 3 (HeLa cells; [9]): 20350
- z-scoreHeLa mean (HeLa cells; PKIS compound screen, HeLa cell count, mean of 3 replicates): 0.24
- z-scoreHeLa rep 1 (HeLa cells; PKIS compound screen, HeLa cell count, replicate 1): -0.18
- z-scoreHeLa rep 2 (HeLa cells; PKIS compound screen, HeLa cell count, replicate 2): 0.63
- z-scoreHeLa rep 3 (HeLa cells; PKIS compound screen, HeLa cell count, replicate 3): 0.28
- cell death (HeLa cells; [3]): No
- cell death (HeLa cells; PKIS compound screen, Yes/No call on z-scoreHeLa): No
- z-scoreHeLa mean (HeLa cells; [10]): 0.29
- z-scoreHeLa rep 1 (HeLa cells; [11]): -0.0543
- z-scoreHeLa rep 2 (HeLa cells; [12]): 0.46
- z-scoreHeLa rep 3 (HeLa cells; [13]): 0.46
- cell count rep 1 (HeLa cells; [14]): 5956
- cell count rep 2 (HeLa cells; [15]): 6708
- cell count rep 3 (HeLa cells; [16]): 6327

Compound: O=C(Nc1n[nH]c2cc(-c3cccs3)ccc12)C1CC1 [SB-731284]
- %GFP+ rep 1 (intracellular MRSA; [1]): 22.6%
- %GFP+ rep 2 (intracellular MRSA; [1]): 23.6%
- %GFP+ rep 3 (intracellular MRSA; [1]): 20.0%
- effect (intracellular MRSA; Yes/No call from z-scoreMRSA+): No
- hit (intracellular MRSA; [17]): No
- z-scoreMRSA+ mean (intracellular MRSA; [18]): -0.35
- z-scoreMRSA+ rep 1 (intracellular MRSA; [18]): -0.62
- z-scoreMRSA+ rep 2 (intracellular MRSA; [18]): 0.24
- z-scoreMRSA+ rep 3 (intracellular MRSA; [18]): -0.66
- cell count rep 1 (HeLa cells; [7]): 2848
- cell count rep 2 (HeLa cells; [8]): 2463
- cell count rep 3 (HeLa cells; [9]): 2761
- cell death (HeLa cells; Yes/No call from z-scoreHeLa): No
- z-scoreHeLa mean (HeLa cells; [19]): -1.36
- z-scoreHeLa rep 1 (HeLa cells; [20]): -1.08
- z-scoreHeLa rep 2 (HeLa cells; [21]): -1.41
- z-scoreHeLa rep 3 (HeLa cells; [22]): -1.57

Compound: O=C(Nc1n[nH]c2cc(-c3ccsc3)ccc12)C1CC1 [SB-732932]
- %GFP+ rep 1 (intracellular MRSA; [6]): 25.2%
- %GFP+ rep 2 (intracellular MRSA; [6]): 22.2%
- %GFP+ rep 3 (intracellular MRSA; [6]): 22.6%
- effect (intracellular MRSA; Yes/No call from z-scoreMRSA+): No
- hit (intracellular MRSA; [17]): No
- z-scoreMRSA+ mean (intracellular MRSA; [18]): 0.001
- z-scoreMRSA+ rep 1 (intracellular MRSA; [18]): -0.0173
- z-scoreMRSA+ rep 2 (intracellular MRSA; [18]): -0.10
- z-scoreMRSA+ rep 3 (intracellular MRSA; [18]): 0.12
- cell count rep 1 (HeLa cells; [14]): 6278
- cell count rep 2 (HeLa cells; [15]): 6296
- cell count rep 3 (HeLa cells; [16]): 8200
- cell death (HeLa cells; Yes/No call from z-scoreHeLa): No
- z-scoreHeLa mean (HeLa cells; [19]): 1.60
- z-scoreHeLa rep 1 (HeLa cells; [20]): 1.39
- z-scoreHeLa rep 2 (HeLa cells; [21]): 1.54
- z-scoreHeLa rep 3 (HeLa cells; [22]): 1.87

Compound: O=C(Nc1n[nH]c2cc(-c3ccccc3)ccc12)C1CC1 [SB-732941]
- effect (intracellular MRSA; [3]): No
- hit (intracellular MRSA; [4]): No
- z-scoreMRSA+ mean (intracellular MRSA; PKIS compound screen): -0.19
- z-scoreMRSA+ rep 1 (intracellular MRSA; PKIS compound screen): -0.15
- z-scoreMRSA+ rep 2 (intracellular MRSA; PKIS compound screen): 0.30
- z-scoreMRSA+ rep 3 (intracellular MRSA; PKIS compound screen): -0.74
- %GFP+ rep 1 (intracellular MRSA; [6]): 12.7%
- %GFP+ rep 2 (intracellular MRSA; [6]): 14.4%
- %GFP+ rep 3 (intracellular MRSA; [6]): 13.4%
- cell death (HeLa cells; [3]): No
- z-scoreHeLa mean (HeLa cells; [10]): 0.28
- z-scoreHeLa rep 1 (HeLa cells; [11]): 0.15
- z-scoreHeLa rep 2 (HeLa cells; [12]): 0.37
- z-scoreHeLa rep 3 (HeLa cells; [13]): 0.31
- cell count rep 1 (HeLa cells; [14]): 4945
- cell count rep 2 (HeLa cells; [15]): 4760
- cell count rep 3 (HeLa cells; [16]): 7601

Compound: O=C(Nc1n[nH]c2cc(-c3cccc(F)c3F)ccc12)C1CC1 [SB-733894]
- %GFP+ rep 1 (intracellular MRSA; [1]): 21.8%
- %GFP+ rep 2 (intracellular MRSA; [1]): 21.7%
- %GFP+ rep 3 (intracellular MRSA; [1]): 19.3%
- effect (intracellular MRSA; Yes/No call from z-scoreMRSA+): No
- hit (intracellular MRSA; [17]): No
- z-scoreMRSA+ mean (intracellular MRSA; [18]): -0.63
- z-scoreMRSA+ rep 1 (intracellular MRSA; [18]): -0.81
- z-scoreMRSA+ rep 2 (intracellular MRSA; [18]): -0.22
- z-scoreMRSA+ rep 3 (intracellular MRSA; [18]): -0.87
- cell count rep 1 (HeLa cells; [7]): 4632
- cell count rep 2 (HeLa cells; [8]): 4442
- cell count rep 3 (HeLa cells; [9]): 4898
- cell death (HeLa cells; Yes/No call from z-scoreHeLa): No
- z-scoreHeLa mean (HeLa cells; [19]): 0.0318
- z-scoreHeLa rep 1 (HeLa cells; [20]): 0.20
- z-scoreHeLa rep 2 (HeLa cells; [21]): 0.11
- z-scoreHeLa rep 3 (HeLa cells; [22]): -0.22

Compound: Nc1nonc1-c1nc2cnccc2n1C1CCCCC1 [SB-734117]
- %GFP+ rep 1 (intracellular MRSA; [6]): 14.7%
- %GFP+ rep 2 (intracellular MRSA; [6]): 14.0%
- %GFP+ rep 3 (intracellular MRSA; [6]): 13.2%
- effect (intracellular MRSA; Yes/No call from z-scoreMRSA+): No
- hit (intracellular MRSA; [17]): No
- z-scoreMRSA+ mean (intracellular MRSA; [18]): -0.0455
- z-scoreMRSA+ rep 1 (intracellular MRSA; [18]): 0.49
- z-scoreMRSA+ rep 2 (intracellular MRSA; [18]): 0.17
- z-scoreMRSA+ rep 3 (intracellular MRSA; [18]): -0.79
- cell count rep 1 (HeLa cells; [14]): 2677
- cell count rep 2 (HeLa cells; [15]): 2902
- cell count rep 3 (HeLa cells; [16]): 5031
- cell death (HeLa cells; Yes/No call from z-scoreHeLa): No
- z-scoreHeLa mean (HeLa cells; [19]): -1.28
- z-scoreHeLa rep 1 (HeLa cells; [20]): -1.90
- z-scoreHeLa rep 2 (HeLa cells; [21]): -1.03
- z-scoreHeLa rep 3 (HeLa cells; [22]): -0.92

Compound: SB-675259-M
- effect (intracellular MRSA; [3]): No
- hit (intracellular MRSA; [4]): No
- z-scoreMRSA+ mean (intracellular MRSA; PKIS compound screen): -0.33
- z-scoreMRSA+ rep 1 (intracellular MRSA; PKIS compound screen): -0.0227
- z-scoreMRSA+ rep 2 (intracellular MRSA; PKIS compound screen): 0.37
- z-scoreMRSA+ rep 3 (intracellular MRSA; PKIS compound screen): -1.33
- %GFP+ rep 1 (intracellular MRSA; [6]): 13.1%
- %GFP+ rep 2 (intracellular MRSA; [6]): 14.6%
- %GFP+ rep 3 (intracellular MRSA; [6]): 11.4%
- cell count rep 1 (HeLa cells): 2153
- cell count rep 2 (HeLa cells): 1700
- cell count rep 3 (HeLa cells): 5596
- cell death (HeLa cells): No
- z-scoreHeLa mean (HeLa cells): -1.66
- z-scoreHeLa rep 1 (HeLa cells): -2.37
- z-scoreHeLa rep 2 (HeLa cells): -1.94
- z-scoreHeLa rep 3 (HeLa cells): -0.65

Compound: SB-739245-AC
- %GFP+ rep 1 (intracellular MRSA; [1]): 12.9%
- %GFP+ rep 2 (intracellular MRSA; [1]): 15.6%
- %GFP+ rep 3 (intracellular MRSA; [1]): 16.3%
- z-scoreMRSA+ mean (intracellular MRSA; [2]): -1.17
- z-scoreMRSA+ rep 1 (intracellular MRSA; [2]): -1.57
- z-scoreMRSA+ rep 2 (intracellular MRSA; [2]): -0.88
- z-scoreMRSA+ rep 3 (intracellular MRSA; [2]): -1.06
- hit (intracellular MRSA; [4]): No
- effect (intracellular MRSA; [5]): No
- cell count rep 1 (HeLa cells): 23497
- cell count rep 2 (HeLa cells): 32010
- cell count rep 3 (HeLa cells): 40050
- cell death (HeLa cells): No
- z-scoreHeLa mean (HeLa cells): -0.0274
- z-scoreHeLa rep 1 (HeLa cells): 0.51
- z-scoreHeLa rep 2 (HeLa cells): -0.52
- z-scoreHeLa rep 3 (HeLa cells): -0.0761
